Laboratory results: the supplement of paper PMC10307832

Tests used:
Test in all cases: relative viability (nuclei count vs DMSO), 5 days (fraction); higher = more cells survive
Shikonin + Bortezomib = compound: CC(C)=CC[C@@H](O)C1=CC(=O)c2c(O)ccc(O)c2C1=O [Shikonin] + CC(C)C[C@H](NC(=O)[C@H](Cc1ccccc1)NC(=O)c1cnccn1)B(O)O [Bortezomib] (partner 0.002 µM)
Procedure, shortened: (§1)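 Dosing by pin tool came one day after lung cancer cell lines were seeded in 1536-well plates, using either one drug or a fixed anchor-drug dose plus five library-drug doses (not always all listed) in √10 steps. After 5 days, nuclei were counted on 4× images. Relative viability is treated-well nuclei count divided by vehicle-well nuclei count, and values are medians of duplicate plates.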

[1] = compound: CC(C)N(CCCNC(=O)Nc1ccc(C(C)(C)C)cc1)C[C@H]1O[C@@H](n2ccc3c(N)ncnc32)[C@H](O)[C@@H]1O + Cc1nc(Nc2ncc(C(=O)Nc3c(C)cccc3Cl)s2)cc(N2CCN(CCO)CC2)n1 [Dasatinib] (partner 0.075 µM)
Procedure, shortened: as §1

Shikonin + Linsitinib = compound: CC(C)=CC[C@@H](O)C1=CC(=O)c2c(O)ccc(O)c2C1=O [Shikonin] + C[C@]1(O)C[C@@H](c2nc(-c3ccc4ccc(-c5ccccc5)nc4c3)c3c(N)nccn32)C1 [Linsitinib] (partner 1 µM)
Procedure, shortened: as §1

[2] = compound: CC(C)N(CCCNC(=O)Nc1ccc(C(C)(C)C)cc1)C[C@H]1O[C@@H](n2ccc3c(N)ncnc32)[C@H](O)[C@@H]1O + CC(=O)c1c(C)c2cnc(Nc3ccc(N4CCNCC4)cn3)nc2n(C2CCCC2)c1=O [Palbociclib] (partner 0.5 µM)
Procedure, shortened: as §1

With NCI-H441 the relative viability (Shikonin + Bortezomib; first compound 0.01 µM) was 0.581, the relative viability (Shikonin + Bortezomib; first compound 0.1 µM) was 0.666 and the relative viability (Shikonin + Bortezomib; first compound 0.3162 µM) was 0.549. It also gave a relative viability (Shikonin + Bortezomib; first compound 1 µM) of 0.603, a relative viability ([1]; first compound 0.08 µM) of 0.718 and a relative viability ([1]; first compound 0.253 µM) of 0.535. The relative viability ([1]; first compound 2.53 µM) was 0.544, the relative viability ([1]; first compound 8 µM) was 0.535 and the relative viability (Shikonin + Linsitinib; first compound 0.01 µM) was 0.618. For the same cell line, the relative viability (Shikonin + Linsitinib; first compound 0.1 µM) was 0.573, the relative viability (Shikonin + Linsitinib; first compound 0.3162 µM) was 0.578 and the relative viability (Shikonin + Linsitinib; first compound 1 µM) was 0.516. It also gave a relative viability ([2]; first compound 0.08 µM) of 0.203, a relative viability ([2]; first compound 0.253 µM) of 0.186 and a relative viability ([2]; first compound 2.53 µM) of 0.237. For the same cell line, the relative viability ([2]; first compound 8 µM) was 0.216.
For NCI-H460, the relative viability (Shikonin + Bortezomib; first compound 0.01 µM) was 1.35, the relative viability (Shikonin + Bortezomib; first compound 0.1 µM) was 0.78 and the relative viability (Shikonin + Bortezomib; first compound 0.3162 µM) was 1.03. It also gave a relative viability (Shikonin + Bortezomib; first compound 1 µM) of 1.3, a relative viability ([1]; first compound 0.08 µM) of 0.41 and a relative viability ([1]; first compound 0.253 µM) of 0.531. For the same cell line, the relative viability ([1]; first compound 0.8 µM) was 0.453, the relative viability ([1]; first compound 2.53 µM) was 0.504 and the relative viability ([1]; first compound 8 µM) was 0.456. For the same cell line, the relative viability (Shikonin + Linsitinib; first compound 0.01 µM) was 0.914, the relative viability (Shikonin + Linsitinib; first compound 0.1 µM) was 0.819 and the relative viability (Shikonin + Linsitinib; first compound 0.3162 µM) was 0.992. The relative viability (Shikonin + Linsitinib; first compound 1 µM) was 0.904, the relative viability ([2]; first compound 0.08 µM) was 0.207 and the relative viability ([2]; first compound 0.253 µM) was 0.201. It also gave a relative viability ([2]; first compound 0.8 µM) of 0.139, a relative viability ([2]; first compound 2.53 µM) of 0.181 and a relative viability ([2]; first compound 8 µM) of 0.111.
NCI-H520 was tested, and the relative viability (Shikonin + Bortezomib; first compound 0.1 µM) was 0.699, the relative viability (Shikonin + Bortezomib; first compound 0.3162 µM) was 0.48 and the relative viability (Shikonin + Bortezomib; first compound 1 µM) was 0.689. It also gave a relative viability ([1]; first compound 0.08 µM) of 0.186, a relative viability ([1]; first compound 0.253 µM) of 0.145 and a relative viability ([1]; first compound 0.8 µM) of 0.151. It also gave a relative viability ([1]; first compound 2.53 µM) of 0.293, a relative viability ([1]; first compound 8 µM) of 0.229 and a relative viability (Shikonin + Linsitinib; first compound 0.1 µM) of 1.11. For the same cell line, the relative viability (Shikonin + Linsitinib; first compound 0.3162 µM) was 1.07, the relative viability (Shikonin + Linsitinib; first compound 1 µM) was 1.07 and the relative viability ([2]; first compound 0.08 µM) was 0.237. For the same cell line, the relative viability ([2]; first compound 0.253 µM) was 0.196, the relative viability ([2]; first compound 0.8 µM) was 0.191 and the relative viability ([2]; first compound 2.53 µM) was 0.226. The relative viability ([2]; first compound 8 µM) was 0.25.
With NCI-H647 the relative viability (Shikonin + Bortezomib; first compound 0.01 µM) was 1.06, the relative viability (Shikonin + Bortezomib; first compound 0.1 µM) was 0.829 and the relative viability (Shikonin + Bortezomib; first compound 0.3162 µM) was 1.05. It also gave a relative viability (Shikonin + Bortezomib; first compound 1 µM) of 1.03, a relative viability ([1]; first compound 0.08 µM) of 0.183 and a relative viability ([1]; first compound 0.253 µM) of 0.15. For the same cell line, the relative viability ([1]; first compound 2.53 µM) was 0.205, the relative viability ([1]; first compound 8 µM) was 0.212 and the relative viability (Shikonin + Linsitinib; first compound 0.01 µM) was 1.01. The relative viability (Shikonin + Linsitinib; first compound 0.1 µM) was 1.37, the relative viability (Shikonin + Linsitinib; first compound 0.3162 µM) was 1.51 and the relative viability (Shikonin + Linsitinib; first compound 1 µM) was 1.32. For the same cell line, the relative viability ([2]; first compound 0.08 µM) was 0.35, the relative viability ([2]; first compound 0.253 µM) was 0.396 and the relative viability ([2]; first compound 0.8 µM) was 0.3. It also gave a relative viability ([2]; first compound 2.53 µM) of 0.406 and a relative viability ([2]; first compound 8 µM) of 0.421.
In the case of NCI-H650, the relative viability (Shikonin + Bortezomib; first compound 0.01 µM) is reported as 0.83, the relative viability (Shikonin + Bortezomib; first compound 0.3162 µM) is reported as 0.77 and the relative viability (Shikonin + Bortezomib; first compound 1 µM) is reported as 0.98. For the same cell line, the relative viability ([1]; first compound 0.08 µM) was 0.416, the relative viability ([1]; first compound 0.253 µM) was 0.425 and the relative viability ([1]; first compound 0.8 µM) was 0.468. The relative viability ([1]; first compound 2.53 µM) was 0.434, the relative viability ([1]; first compound 8 µM) was 0.438 and the relative viability (Shikonin + Linsitinib; first compound 0.01 µM) was 0.975. The relative viability (Shikonin + Linsitinib; first compound 0.3162 µM) was 0.843, the relative viability (Shikonin + Linsitinib; first compound 1 µM) was 0.845 and the relative viability ([2]; first compound 0.08 µM) was 0.349. The relative viability ([2]; first compound 0.253 µM) was 0.339, the relative viability ([2]; first compound 0.8 µM) was 0.323 and the relative viability ([2]; first compound 2.53 µM) was 0.319. It also gave a relative viability ([2]; first compound 8 µM) of 0.348.
In the case of NCI-H661, the relative viability (Shikonin + Bortezomib; first compound 0.01 µM) is reported as 0.835, the relative viability (Shikonin + Bortezomib; first compound 0.1 µM) is reported as 0.818 and the relative viability (Shikonin + Bortezomib; first compound 0.3162 µM) is reported as 0.734. It also gave a relative viability (Shikonin + Bortezomib; first compound 1 µM) of 0.769, a relative viability ([1]; first compound 0.08 µM) of 0.875 and a relative viability ([1]; first compound 0.253 µM) of 0.787. It also gave a relative viability ([1]; first compound 0.8 µM) of 0.892, a relative viability ([1]; first compound 2.53 µM) of 0.885 and a relative viability ([1]; first compound 8 µM) of 0.821. For the same cell line, the relative viability (Shikonin + Linsitinib; first compound 0.01 µM) was 0.724, the relative viability (Shikonin + Linsitinib; first compound 0.1 µM) was 0.575 and the relative viability (Shikonin + Linsitinib; first compound 0.3162 µM) was 0.656. For the same cell line, the relative viability (Shikonin + Linsitinib; first compound 1 µM) was 0.546, the relative viability ([2]; first compound 0.08 µM) was 0.395 and the relative viability ([2]; first compound 0.253 µM) was 0.437. For the same cell line, the relative viability ([2]; first compound 0.8 µM) was 0.45, the relative viability ([2]; first compound 2.53 µM) was 0.423 and the relative viability ([2]; first compound 8 µM) was 0.423.
In the case of NCI-H727, the relative viability (Shikonin + Bortezomib; first compound 0.01 µM) is reported as 0.862, the relative viability (Shikonin + Bortezomib; first compound 0.1 µM) is reported as 0.933 and the relative viability (Shikonin + Bortezomib; first compound 0.3162 µM) is reported as 0.973. For the same cell line, the relative viability (Shikonin + Bortezomib; first compound 1 µM) was 0.755, the relative viability ([1]; first compound 0.08 µM) was 0.381 and the relative viability ([1]; first compound 0.253 µM) was 0.427. The relative viability ([1]; first compound 0.8 µM) was 0.345, the relative viability ([1]; first compound 2.53 µM) was 0.393 and the relative viability ([1]; first compound 8 µM) was 0.333. It also gave a relative viability (Shikonin + Linsitinib; first compound 0.01 µM) of 0.165, a relative viability (Shikonin + Linsitinib; first compound 0.1 µM) of 0.252 and a relative viability (Shikonin + Linsitinib; first compound 0.3162 µM) of 0.319. The relative viability (Shikonin + Linsitinib; first compound 1 µM) was 0.314, the relative viability ([2]; first compound 0.08 µM) was 0.694 and the relative viability ([2]; first compound 0.253 µM) was 0.578. The relative viability ([2]; first compound 0.8 µM) was 0.769, the relative viability ([2]; first compound 2.53 µM) was 0.82 and the relative viability ([2]; first compound 8 µM) was 0.62.
NCI-H838 was tested, and the relative viability (Shikonin + Bortezomib; first compound 0.01 µM) was 0.992, the relative viability (Shikonin + Bortezomib; first compound 0.1 µM) was 0.727 and the relative viability (Shikonin + Bortezomib; first compound 0.3162 µM) was 0.842. The relative viability (Shikonin + Bortezomib; first compound 1 µM) was 0.685, the relative viability ([1]; first compound 0.08 µM) was 0.268 and the relative viability ([1]; first compound 0.253 µM) was 0.262. For the same cell line, the relative viability ([1]; first compound 0.8 µM) was 0.279, the relative viability ([1]; first compound 2.53 µM) was 0.263 and the relative viability ([1]; first compound 8 µM) was 0.31. The relative viability (Shikonin + Linsitinib; first compound 0.01 µM) was 1.05, the relative viability (Shikonin + Linsitinib; first compound 0.1 µM) was 1.08 and the relative viability (Shikonin + Linsitinib; first compound 0.3162 µM) was 1.07. It also gave a relative viability (Shikonin + Linsitinib; first compound 1 µM) of 1.03, a relative viability ([2]; first compound 0.08 µM) of 0.217 and a relative viability ([2]; first compound 0.253 µM) of 0.178. It also gave a relative viability ([2]; first compound 0.8 µM) of 0.182, a relative viability ([2]; first compound 2.53 µM) of 0.247 and a relative viability ([2]; first compound 8 µM) of 0.251.
Cell Line NCI-H1355 has a relative viability (Shikonin + Bortezomib; first compound 0.01 µM) of 1.24, a relative viability (Shikonin + Bortezomib; first compound 0.1 µM) of 1.25 and a relative viability (Shikonin + Bortezomib; first compound 0.3162 µM) of 1.22. For the same cell line, the relative viability (Shikonin + Bortezomib; first compound 1 µM) was 1.23, the relative viability ([1]; first compound 0.08 µM) was 0.71 and the relative viability ([1]; first compound 0.253 µM) was 0.548. It also gave a relative viability ([1]; first compound 0.8 µM) of 0.379, a relative viability ([1]; first compound 2.53 µM) of 0.698 and a relative viability ([1]; first compound 8 µM) of 0.668. The relative viability (Shikonin + Linsitinib; first compound 0.01 µM) was 0.764, the relative viability (Shikonin + Linsitinib; first compound 0.1 µM) was 0.943 and the relative viability (Shikonin + Linsitinib; first compound 0.3162 µM) was 0.887. For the same cell line, the relative viability (Shikonin + Linsitinib; first compound 1 µM) was 0.855, the relative viability ([2]; first compound 0.08 µM) was 0.379 and the relative viability ([2]; first compound 0.253 µM) was 0.427. It also gave a relative viability ([2]; first compound 0.8 µM) of 0.363, a relative viability ([2]; first compound 2.53 µM) of 0.386 and a relative viability ([2]; first compound 8 µM) of 0.392.
